Laboratory results from patent US20100261711A1, “SELECTIVE ANTICONVULSANT AGENTS AND THEIR USES” (WiSys Technology Foundation, priority 2009, published 2010).

melting point [°C]	Compound
174 to 175	CCOC(=O)c1ncn2c1CN=C(c1ccccc1)c1cc(Cl)ccc1-2
234 to 235	CNC1=Nc2ccc(Br)cc2C(c2ccccc2)=NC1
210 to 211	CNC1=Nc2ccc(C#C[Si](C)(C)C)cc2C(c2ccccc2)=NC1
242 to 243	C[Si](C)(C)C#Cc1ccc2c(c1)C(c1ccccn1)=NCC(=O)N2
194 to 195	CN1C(=O)CN=C(c2ccccn2)c2cc(C#C[Si](C)(C)C)ccc21
190 to 191	C#Cc1ccc2c(c1)C(c1ccccn1)=NCC(=O)N2C
205 to 206	CCOC(=O)c1ncn2c1CN=C(c1ccccn1)c1cc(C#C[Si](C)(C)C)ccc1-2
222 to 223	CC(C)(C)OC(=O)c1ncn2c1CN=C(c1ccccc1)c1cc(Br)ccc1-2
